Data: article PMC11062899, “De novo development of small cyclic peptides that are orally bioavailable” (Nature Chemical Biology, 2023)
Where “and” joins values, the source holds several entries; their conditions need not be identical. Identical values can stand only once.

Tests used:
[1] = molecular target: T1, thrombin (Homo sapiens, UniProt P00734); test: Target specificity profiling: thrombin; format: biochemical; settings: replicates R1-R3
T1 construct: […]; purchased Molecular Innovations
Description: (§1) The protease specificity was assessed by testing the inhibition of a series of trypsin-like serine proteases using fluorogenic or chromogenic substrates. Peptide dilutions ranging from 40 μM to 40 nM were prepared for all proteases except thrombin (1 μM to 1 nM). […]. The following fluorogenic substrates were used at a final concentration of 50 μM: Z-Gly-Gly-Arg-AMC (Bachem) for thrombin and trypsin; Z-Phe-Arg-AMC (Bachem) for plasma kallikrein; Boc-Phe-Ser-Arg-AMC (Bachem) for factor XIa; and Boc-Gln-Gly-Arg-AMC (Bachem) for factor XIIa. […]. Reactions were performed in a volume of 150 μl in 96-well plates. A volume of 50 μl of twofold dilutions of macrocycle in assay buffer was pipetted into the wells of the plates. A volume of 50 μl of protease in assay buffer was added to each well and incubated for 15 min. A volume of 50 μl of substrate in assay buffer containing 3% DMSO was added. Fluorescence intensity was measured for 30 min using an Infinite M200 Pro plate reader (Tecan; excitation at 368 nm, emission at 467 nm), with one measurement every minute. For APC protease, absorbance was measured at 405 nm using the same plate reader for a period of 30 min with one reading every minute. Reactions were performed at 25 °C. Data were analyzed by Excel (version 2016).

[2] = molecular target: T2, activated protein C (APC) (Homo sapiens, UniProt P04070); test: Target specificity profiling: activated protein C; format: biochemical; settings: replicates R1-R3
T2 construct: purchased Molecular Innovations
T2 sequence (P04070 212-461 limits assumed): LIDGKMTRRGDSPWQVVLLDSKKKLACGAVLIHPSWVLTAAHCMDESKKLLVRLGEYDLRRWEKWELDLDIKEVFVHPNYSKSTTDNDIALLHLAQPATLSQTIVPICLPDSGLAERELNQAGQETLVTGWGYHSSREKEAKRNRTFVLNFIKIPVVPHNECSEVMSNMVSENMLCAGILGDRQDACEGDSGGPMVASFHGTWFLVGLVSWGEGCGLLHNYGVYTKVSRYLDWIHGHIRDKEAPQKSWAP
T2 sequence (P04070 43-197 partner limits assumed): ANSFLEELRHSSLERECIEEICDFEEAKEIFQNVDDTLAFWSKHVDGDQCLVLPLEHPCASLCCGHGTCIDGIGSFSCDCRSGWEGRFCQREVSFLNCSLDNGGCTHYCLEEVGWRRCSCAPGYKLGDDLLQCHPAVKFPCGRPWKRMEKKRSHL
Description: as §1

[3] = molecular target: T3, plasma kallikrein (Homo sapiens, UniProt P03952); test: Target specificity profiling: plasma kallikrein; format: biochemical; settings: replicates R1-R3
T3 construct: 0.25 nM plasma kallikrein (Innovative Research); purchased Innovative Research
T3 sequence (P03952 391-638 limits assumed): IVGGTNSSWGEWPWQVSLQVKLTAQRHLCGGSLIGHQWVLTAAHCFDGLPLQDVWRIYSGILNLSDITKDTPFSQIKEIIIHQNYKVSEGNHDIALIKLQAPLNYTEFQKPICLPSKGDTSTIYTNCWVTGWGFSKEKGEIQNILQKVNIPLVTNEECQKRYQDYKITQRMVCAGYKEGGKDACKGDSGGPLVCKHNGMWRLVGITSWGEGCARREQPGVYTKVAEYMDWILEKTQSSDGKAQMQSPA
T3 sequence (P03952 20-390 partner limits assumed): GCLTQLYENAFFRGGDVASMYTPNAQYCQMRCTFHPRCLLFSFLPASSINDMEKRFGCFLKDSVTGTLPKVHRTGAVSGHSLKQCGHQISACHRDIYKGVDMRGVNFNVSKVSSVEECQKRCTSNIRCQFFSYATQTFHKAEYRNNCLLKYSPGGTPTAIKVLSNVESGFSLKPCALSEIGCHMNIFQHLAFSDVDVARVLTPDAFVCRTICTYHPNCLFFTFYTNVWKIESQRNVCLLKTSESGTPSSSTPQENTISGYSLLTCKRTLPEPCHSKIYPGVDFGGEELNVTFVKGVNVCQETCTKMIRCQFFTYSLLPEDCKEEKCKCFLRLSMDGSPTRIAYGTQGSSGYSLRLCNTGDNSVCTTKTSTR
Description: as §1

[4] = molecular target: T4, factor XIIa (Homo sapiens, UniProt P00748); test: Target specificity profiling: factor XIIa; format: biochemical; settings: replicates R1-R3
T4 construct: 5.3 nM factor XIIa (Molecular Innovations); purchased Molecular Innovations
T4 sequence (P00748 373-615 limits assumed, other chains not shown): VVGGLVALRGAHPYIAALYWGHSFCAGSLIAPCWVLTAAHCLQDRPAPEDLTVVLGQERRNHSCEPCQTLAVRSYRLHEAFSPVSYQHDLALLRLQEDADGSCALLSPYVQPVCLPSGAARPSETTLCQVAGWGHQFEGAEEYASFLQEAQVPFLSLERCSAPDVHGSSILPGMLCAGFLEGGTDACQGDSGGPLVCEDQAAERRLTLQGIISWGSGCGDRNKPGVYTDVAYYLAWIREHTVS
Description: as §1

[5] = molecular target: T5, factor XIa (Homo sapiens, UniProt P03951); test: Target specificity profiling: factor XIa; format: biochemical; settings: replicates R1-R3
T5 construct: 1 nM factor XIa (Innovative Research); purchased Innovative Research
T5 sequence (P03951 388-625 limits assumed): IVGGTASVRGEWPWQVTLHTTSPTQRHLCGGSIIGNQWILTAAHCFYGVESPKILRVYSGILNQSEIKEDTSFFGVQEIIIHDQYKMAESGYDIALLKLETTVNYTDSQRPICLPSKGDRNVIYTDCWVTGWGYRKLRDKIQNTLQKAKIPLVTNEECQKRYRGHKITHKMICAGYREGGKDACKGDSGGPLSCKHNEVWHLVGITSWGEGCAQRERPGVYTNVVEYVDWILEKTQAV
T5 sequence (P03951 19-387 partner limits assumed): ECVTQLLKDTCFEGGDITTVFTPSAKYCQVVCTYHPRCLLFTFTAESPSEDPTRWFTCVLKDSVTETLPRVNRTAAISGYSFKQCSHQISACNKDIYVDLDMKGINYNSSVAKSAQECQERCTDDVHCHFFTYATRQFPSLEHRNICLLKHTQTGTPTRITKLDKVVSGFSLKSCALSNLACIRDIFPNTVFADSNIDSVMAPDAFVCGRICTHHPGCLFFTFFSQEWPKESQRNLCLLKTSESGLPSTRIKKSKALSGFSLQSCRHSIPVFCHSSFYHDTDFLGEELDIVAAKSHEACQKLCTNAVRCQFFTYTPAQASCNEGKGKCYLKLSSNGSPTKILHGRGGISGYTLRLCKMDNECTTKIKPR
Description: as §1

[6] = Measurement of in vivo gastrointestinal stability in rats; parameters: species or system rat; settings: for Concentration in organ extract: rat n = 1, 30 min after p.o. 10 mg kg^−1
Description: Peptide 43 was dissolved in 10% Cremophor EL and 5% DMSO in water at a concentration of 1 mg ml^−1 and administrated by oral gavage to a rat at a dose of 10 mg kg^−1. The rat was killed 30 min after the administration using a CO2 chamber followed by cervical dislocation. Stomach, small intestine (duodenum/jejunum and ileum were collected separately) and large intestine were removed and immediately frozen in pre-cooled containers on dry ice. Organs and their respective content were collected separately to facilitate homogenization and sample processing. The organs were homogenized using a mortar and pestle on dry ice and liquid nitrogen to avoid thawing of the samples. Peptides were extracted by addition of 2 ml of extraction buffer containing 50 mM Tris-HCl (pH 8.0), 150 mM NaCl, 5 mM EDTA, 0.01% Triton-X, 1 mM PMSF and protease inhibitor cocktail (Sigma-Aldrich, P8340) per gram of organ or organ content weight and sonicating the resulting suspension for 5 min. Samples were centrifuged at 16,000g for 10 min, and 40 μl of the resulting supernatant was mixed with 120 μl of a cold acetonitrile:water (9:1) solution containing an internal standard (5 μg ml^−1). Samples were analyzed and quantified by LC–MS as described above.

O=C1C[C@H]2CCCN2C(=O)[C@H](Cc2ccccc2)NC(=O)[C@@H](NC(=O)c2ccc(Cl)cc2)CCC=CCCCCN1 (mixture of isomers) [peptide 46]
Residual protease activity, Thrombin (human) ([1]; inhibitor 1.00E+03 nM): 3.9 and 4.0 and 3.8
Residual protease activity, Thrombin (human) ([1]; inhibitor 1.25E+02 nM): 27.0 and 25.5 (2×)
Residual protease activity, Thrombin (human) ([1]; inhibitor 1.56E+01 nM): 75.5 and 73.3 and 73.1
Residual protease activity, Thrombin (human) ([1]; inhibitor 1.95E+00 nM): 95.2 and 97.7 and 95.3
Residual protease activity, Thrombin (human) ([1]; inhibitor 2.50E+02 nM): 15.1 and 14.2 and 14.6
Residual protease activity, Thrombin (human) ([1]; inhibitor 3.12E+01 nM): 59.3 and 58.1 and 56.4
Residual protease activity, Thrombin (human) ([1]; inhibitor 3.91E+00 nM): 91.5 and 93.3 and 91.3
Residual protease activity, Thrombin (human) ([1]; inhibitor 5.00E+02 nM): 7.6 and 7.4 (2×)
Residual protease activity, Thrombin (human) ([1]; inhibitor 6.25E+01 nM): 44.1 and 42.5 and 42.8
Residual protease activity, Thrombin (human) ([1]; inhibitor 7.81E+00 nM): 89.2 and 86.5 and 77.1
Residual protease activity, Thrombin (human) ([1]; inhibitor 9.77E-01 nM): 99.8 and 102.7 and 98.9
Residual protease activity, APC ([2]; inhibitor 1.00E+04 nM): 101.7 and 94.1 and 93.6
Residual protease activity, APC ([2]; inhibitor 1.25E+03 nM): 93.2 and 97.3 and 95.1
Residual protease activity, APC ([2]; inhibitor 1.56E+02 nM): 95.1 and 104.3 and 101.7
Residual protease activity, APC ([2]; inhibitor 2.00E+04 nM): 94.9 and 98.4 and 96.8
Residual protease activity, APC ([2]; inhibitor 2.50E+03 nM): 94.9 and 96.5 and 96.6
Residual protease activity, APC ([2]; inhibitor 3.12E+02 nM): 95.1 and 90.6 and 94.4
Residual protease activity, APC ([2]; inhibitor 3.91E+01 nM): 96.3 and 96.7 and 99.0
Residual protease activity, APC ([2]; inhibitor 4.00E+04 nM): 95.7 and 97.0 and 95.5
Residual protease activity, APC ([2]; inhibitor 5.00E+03 nM): 98.3 and 99.0 and 99.1
Residual protease activity, APC ([2]; inhibitor 6.25E+02 nM): 100.4 and 91.2 and 89.1
Residual protease activity, APC ([2]; inhibitor 7.81E+01 nM): 108.2 and 108.3 and 107.3
Residual protease activity, Plasma kallikrein ([3]; inhibitor 1.00E+04 nM): 100.3 and 97.1 and 98.3
Residual protease activity, Plasma kallikrein ([3]; inhibitor 1.25E+03 nM): 101.3 and 99.9 and 96.3
Residual protease activity, Plasma kallikrein ([3]; inhibitor 1.56E+02 nM): 96.4 and 108.1 and 104.0
Residual protease activity, Plasma kallikrein ([3]; inhibitor 2.00E+04 nM): 101.2 and 98.7 and 98.9
Residual protease activity, Plasma kallikrein ([3]; inhibitor 2.50E+03 nM): 103.4 and 100.4 and 99.0
Residual protease activity, Plasma kallikrein ([3]; inhibitor 3.12E+02 nM): 102.1 and 105.6 and 105.7
Residual protease activity, Plasma kallikrein ([3]; inhibitor 3.91E+01 nM): 104.4 and 99.7 and 94.4
Residual protease activity, Plasma kallikrein ([3]; inhibitor 4.00E+04 nM): 101.1 and 97.0 and 98.9
Residual protease activity, Plasma kallikrein ([3]; inhibitor 5.00E+03 nM): 98.7 and 96.4 and 96.9
Residual protease activity, Plasma kallikrein ([3]; inhibitor 6.25E+02 nM): 106.1 and 103.7 and 102.1
Residual protease activity, Plasma kallikrein ([3]; inhibitor 7.81E+01 nM): 103.2 and 99.7 and 96.6
Residual protease activity, Factor XIIa ([4]; inhibitor 1.00E+04 nM): 96.5 and 104.4 and 105.7
Residual protease activity, Factor XIIa ([4]; inhibitor 1.25E+03 nM): 99.3 and 104.0 and 102.2
Residual protease activity, Factor XIIa ([4]; inhibitor 1.56E+02 nM): 96.6 and 95.7 and 104.9
Residual protease activity, Factor XIIa ([4]; inhibitor 2.00E+04 nM): 93.0 and 104.6 and 101.1
Residual protease activity, Factor XIIa ([4]; inhibitor 2.50E+03 nM): 101.4 and 100.3 and 106.4
Residual protease activity, Factor XIIa ([4]; inhibitor 3.12E+02 nM): 98.7 and 101.4 and 105.7
Residual protease activity, Factor XIIa ([4]; inhibitor 3.91E+01 nM): 100.9 and 93.5 and 95.2
Residual protease activity, Factor XIIa ([4]; inhibitor 4.00E+04 nM): 94.7 and 100.5 and 101.1
Residual protease activity, Factor XIIa ([4]; inhibitor 5.00E+03 nM): 96.4 and 102.9 and 108.8
Residual protease activity, Factor XIIa ([4]; inhibitor 6.25E+02 nM): 97.3 and 115.8 and 103.1
Residual protease activity, Factor XIIa ([4]; inhibitor 7.81E+01 nM): 96.1 and 102.4 and 80.0
Residual protease activity, Factor Xia ([5]; inhibitor 1.00E+04 nM): 95.7 and 95.4 and 95.1
Residual protease activity, Factor Xia ([5]; inhibitor 1.25E+03 nM): 96.1 and 95.1 and 96.0
Residual protease activity, Factor Xia ([5]; inhibitor 1.56E+02 nM): 107.0 and 105.2 and 107.6
Residual protease activity, Factor Xia ([5]; inhibitor 2.00E+04 nM): 93.9 and 90.3 and 94.5
Residual protease activity, Factor Xia ([5]; inhibitor 2.50E+03 nM): 100.7 and 100.4 and 101.9
Residual protease activity, Factor Xia ([5]; inhibitor 3.12E+02 nM): 89.3 and 92.0 and 107.2
Residual protease activity, Factor Xia ([5]; inhibitor 3.91E+01 nM): 99.1 and 100.7 and 101.5
Residual protease activity, Factor Xia ([5]; inhibitor 4.00E+04 nM): 101.0 and 99.6 and 99.1
Residual protease activity, Factor Xia ([5]; inhibitor 5.00E+03 nM): 104.3 and 104.7 and 110.9
Residual protease activity, Factor Xia ([5]; inhibitor 6.25E+02 nM): 94.0 and 96.1 and 97.6
Residual protease activity, Factor Xia ([5]; inhibitor 7.81E+01 nM): 100.7 and 100.8 and 101.1

O=C1C[C@H]2CCCN2C(=O)[C@H](Cc2ccccc2)NC(=O)[C@@H](NC(=O)c2ccc(Cl)s2)CCC=CCCCCN1 [peptide 43]
Concentration in organ extract ([6]; Large intestine - content): 656 nM
Concentration in organ extract ([6]; Large intestine): 500 nM
Concentration in organ extract ([6]; Lower small instestine - content): 2900 nM
Concentration in organ extract ([6]; Lower small instestine): 600 nM
Concentration in organ extract ([6]; Stomach - content): 87600 nM
Concentration in organ extract ([6]; Stomach): 31600 nM
Concentration in organ extract ([6]; Upper small instestine - content): 13100 nM
Concentration in organ extract ([6]; Upper small instestine): 2600 nM
in vivo gastrointestinal stability ([6]; rats, 10 mg kg^−1 p.o., 30 min, stomach, small and large intestine): large fraction of the peptide fully intact
